Measurements from patent US9051562B2, “Polypeptides isolated from brevibacterium aurantiacum and their use for the treatment of cancer” (Institut National de la Santé et de la Recherche Médicale …, priority 2011, dated 2015).

Assays:
[1] = biological target: Brevibacterium aurantiacum (ATCC 9175; formerly B. linens) methionine gamma-lyase MGL-BL929, recombinant, SEQ ID NO: 1 (Brevibacterium aurantiacum, UniProt A0A2H1K3G9); settings: for activity of the enzyme towards the substrate (in words): 25 mM of substrate; for activity of the enzyme towards the substrate (in words) / Vmax: pH 7.5, 25° C., 10 min; for Vmax: 100 mM K*PO4, 0.01 mM PLP
[2] = system: HT29MTX cells; test: Growth inhibition of HT29MTX cells (Trypan blue dye exclusion), resistance to methotrexate; format: cell-based, human; settings: 1 μM methotrexate
Text: Seven human tumor cell lines were used to determine the cellular effects of MGL-BL929. These comprise five adherent solid tumor-derived cell lines (including the colorectal carcinoma cell line HT29, two stable variants of HT29 selected for their high levels of resistance to methotrexate (HT29MTX), and to fluorouracil (HT29FUra), the ovarian carcinoma cell line SKOV3, and the hepatoblastoma-derived cell line (HepG2), and 2 non-adherent tumor cell lines (including the T-cell lymphoma cell line Jurkat, and the acute lymphocytic leukemia cell line Reh). Similarly, human non-tumor skin fibroblasts (CDGII) were exposed to MGL-BL929 at various concentrations in order to explore selectivity of MGL-BL929 towards cancer cells.
The cells lines were thawed from mycoplasma-free frozen stocks and were controlled for contamination. Cells were maintained in cell culture medium (RPMI 1640 or DMEM according to the growth requirements of each cell line), supplemented with 10% FBS and antibiotics (streptomycin, 50 μg/mL, and penicillin, 50 U/mL) at 37° in an atmosphere containing 5% CO2. Cells were exposed in 12 well-cell plates to the purified recombinant MGL-BL929 at a concentration range from 0.05 U/mL to 5 U/mL, and were harvested 24 hr., 48 hr., 72 hr., and 96 hr. from start of the exposure. Cell viability was measured with the Trypan blue dye exclusion test in Malassez chambers.

| SMILES | activity of the enzyme towards the substrate (in words) [1] | Vmax [1] | Affinity relative to L-methionine (fold greater) ([1]; L-homocysteine compared with L-methionine) | resistance of the cells to methotrexate (in words) [2] |
| --- | --- | --- | --- | --- |
| CSCC[C@@H](N)C(=O)O [D-methionine] | no activity | 0 μmol · min^−1 · m^−1 |  |  |
| N[C@@H](CCSC[C@H](N)C(=O)O)C(=O)O [L-Cystathionine, L-cystathionine] | no activity | 0 μmol · min^−1 · m^−1 |  |  |
| N[C@@H](CS)C(=O)O [L-Cysteine, L-cysteine] | no activity | 0 μmol · min^−1 · m^−1 |  |  |
| N[C@@H](CCS)C(=O)O [L-Homocysteine, L-homocysteine] |  | 27.7 ± 5.7 μmol · min^−1 · m^−1 | 7.3 fold |  |
| CSCC[C@H](N)C(=O)O [L-Methionine, L-methionine] |  | 5.77 ± 1.4 μmol · min^−1 · m^−1 |  |  |
| Nc1ncnc2c1ncn2[C@@H]1O[C@H](CSCC[C@H](N)C(=O)O)[C@@H](O)[C@H]1O [S-Adenosyl L-homocysteine] | no activity | 0 μmol · min^−1 · m^−1 |  |  |
| CN(Cc1cnc2nc(N)nc(N)c2n1)c1ccc(C(=O)N[C@@H](CCC(=O)O)C(=O)O)cc1 [methotrexate] |  |  |  | fully resistant |
